Source: patent publication US8828993B2, “Psychotropic agents having glutamate NMDA activity” (Ramot At Tel-Aviv University Ltd., priority 2006, dated 2014)

Columns and labels:
mice [1] = assay: Elevated plus maze; type: in vivo; conditions: male Balb/c mice, oral, diazepam 1 mg/kg
From the text: The elevated plus maze is a widely used method to test anxiety in rodents (Pellow, et al., Pharmacol. Biochem. Behav., 24, 525-529 (1986)). The apparatus was made of wood and painted black, with two opposing open arms and two opposite enclosed arms of the same size. The arms were attached to a central square shaped in a plus sign. The whole apparatus was placed 50 cm above the floor. Anxious animals refrain from entering the open arm and prefer the closed arm.
In a typical experiment, Balb/c male mice were administered orally with 10 and 20 mg/kg of Compound 1 or Compound 6 and with a vehicle or with diazepam (1 mg/kg) administered per os (p.o.) 90 minutes before they were placed in the center of the maze. The frequency to the open aims, the time spent in the different arms, the velocity and number of rearings of the animals in each zone were recorded (Noldus).
Male Balb/c mice were used. Animals were transferred to the behavior room 24 hr before the experiment. Compound 1 or diazepam were administered orally 90 minutes before testing. Each treatment group included 5 animals.
Male Balb/c mice were used. Animals were transferred to the behavior room 24 hr before the experiment. Compound 6 (3, 9, or 27 mg/kg) or vehicle were administered orally 90 minutes before testing. Each treatment group included 5 animals.

mice [2] = assay: Forced swim test (FST); type: in vivo; conditions: male ICR mice, 20 mg/kg oral
From the text: This is one of the most widely used tools for screening antidepressant activity pre-clinically in acute treatment. The test was first described by Porsolt et al., (Behavioral despair in mice: a primary screening test for antidepressants. Arch. Int. Pharmacodyn. Ther. 229, pp. 327-336, 1977). The FST test is based on the observation that rats and mice develop an immobile posture when placed in an inescapable cylinder of water. This behavior is considered a behavioral despair as opposed to active form of coping with stressful conditions. The FST test is considered a good screening tool with good reliability and predictive validity.
Three parameters were defined in the evaluation of FST:
1. Immobility—defined in the traditional Porsolt test as when no additional activity is observed other than that required to keep the animal's head above water;
2. Swimming behavior—being the movement (usually horizontal) throughout the chamber that also includes crossing into another quadrant;
3. Climbing behavior—being defined as the upward-directed movements (vertical) of the forepaws along the side of the swim chamber.
The test in mice was conducted acutely (60-90 minutes post oral drug administration) and animals were dropped to the cylinder for 6 minutes and scoring was performed in the last 4 minutes after 2 minutes of adaptation.
Round glass cylinders, 18 cm in diameter and 20 cm deep were used. Water temperature was 24-28° C. Four parameters were taken: immobility, velocity, distance and strong mobility. The immobility in the animals was defined by activity lower than 10% movement of the center of gravity of the animal. Swimming was defined by the distance and the velocity of the animal, and climbing was related to strong mobility (movement of center of gravidance more than 30%).
Males Balb/c mice (Harlan Israel) were used. Animals were administered orally with Compound 1 (10 or 20 mg/kg) or with a vehicle.
Males ICR mice were used.

SMILES	number of rearings in the center (mice [1])	number of rearings in the open arm (mice [1])	velocity (mice [1])	distance moved (mice [2])	immobility (mice [2])	strong mobility (climbing) (mice [2])	velocity (mice [2])
CN1C(=O)CN=C(c2ccccc2)c2cc(Cl)ccc21 [diazepam, reference compound]	significantly increased	increased number of rearings	higher	–	–	–	–
Cc1cc2c(s1)Nc1ccccc1N=C2N1CCN(C)CC1 [olanzapine, reference compound]	–	–	–	significantly decreased	increased	significantly decreased	significantly decreased
